The text below walks through data of patent publication US6951682B1, “Porous coatings bearing ligand arrays and use thereof” (Syntrix Biochip, Inc., priority 1998, dated 2005).

Usually IC50 stands for the concentration needed to halve the response being measured.

The test system of test [1] is surface-bound DNA-ligand 5′-GCCTACGC-3′. Description: Hybridization of fluorescein-labeled DNA-receptor to DNA-ligand synthesized on patterned porous coating (epifluorescence). In kind it is binding. To be noted: 10 μM in 6×SSPE, 1 hour at 4° C., wash at 15° C.; 10× objective, 15 seconds exposure. The method, then:
Using the DNA synthesizer to automatically deliver reagents, the DNA-ligand with the sequence 5′-[…]-3′ was synthesized via eight phosphoramidite couplings on the exposed hydroxyl groups beginning with the 3′ end. Following synthesis, the reactor system was separated from the DNA synthesizer, and the phosphate and exocyclic amine protecting groups removed by manually applying 0.05 M potassium carbonate in methanol to the reactor cavity for 2 hours at room temperature. […]
The 6×SSPE solution is a high-salt buffer with a pH of 7.4 comprising 1M NaCl, 66 mM NaH2PO4/Na2HPO4, 6 mM EDTA, and 0.05° Triton X-100-™ The slide was subsequently washed in 6×SSPE at a temperature of 15° C., and mounted on a modified microscope stage attached to a Standard Epifluorescence Microscope The stage contained an aqueous gel within its interior that was chilled to approximately 4° C. prior to image acquisition. The fluorescence image of FTA hybridized to the porous coating was captured using a 35 mm camera attached to the microscope. […]
Following hybridization, the slide was washed in 6×SSPE at a temperature of 15° C. and mounted on the modified stage as described above. The fluorescence image of the FAA hybridization was captured with the 10× objective of a Standard Epifluorescence Microscope with attached 35 mm camera. […]

Test [2] relates to PNA-array linker-spacer-CGN1N2TCCG-NH2. Description: Hybridization of fluorescein-labeled DNA-receptor to 16-element PNA-array on patterned porous coating (epifluorescence). In kind it is binding. To be noted: 10 μM in 6×SSPE, 10 minutes at room temperature; 10× objective, 15 seconds exposure. The method, then: A patterned porous coating comprising a 4×4 array of 600 μm×600 μm porous squares was prepared as described in Example 19, and coupled with amino-linker molecules using the method described in Example 20. The PNA-array was then synthesized on the surface of the patterned porous coating with each array element occupying one 600 μm×600 μm porous square. Each element of the array comprised one of the 16 possible combinations of the sequence, linker-spacer-CGN1N2TCCG-NH2, where N1 and N2 may independently be A, G, C, or T. The position of each element in the array, as referenced by the N1N2 sequence, is shown in the array schematics of FIGS. 6A and 6B. […]
The fluorescence image of the porous coating was captured at room temperature using a 35 mm camera attached to a Standard Epifluorescence Microscope. The fluorescence image of FAA bound at the predicted array element is readily detected and visualized using an objective magnification of 10× and an exposure time of 15 seconds (see FIG. 6 and corresponding surface plot).
Bound FAA was dissociated from the PNA-array by immersing the slide in 90° C. water, and the hybridization repeated with FTA using conditions as described above for FAA. The fluorescence image of the FTA hybridization was captured with the 10× objective of a Standard Epifluorescence Microscope with attached 35 mm camera. […]

The target of test [3] is T1, angiotensin converting enzyme (ACE) (Homo sapiens, UniProt P12821). Description: ACE inhibitory activity, functional assay with substrate FAPGG (absorbance at 328 nm). Format: biochemical. The conditions noted are these: 10 nM ACE, 50 μM FAPGG. The method, then: Each assay mixture contained 10 nM ACE, 50 μM FAPGG, 50 mM Tris (pH 8.3), 300 mM NaCl, and 20-40 μl of each of the above analogue solutions in a total reaction volume of 50 μl. The above mixture without analogue served as the negative control for inhibitory activity. […] Each reaction was initiated by adding 5 μl of 500 μM FAPGG to 45 μl of the remaining assay components in a 100 μl cuvette. The temporal progress of each reaction was monitored by measuring the absorbance at 328 nm every 15 seconds.
The percent ACE inhibition is expressed as the percent decrease in initial velocity relative to the initial velocity of the negative control. […] Compositions are referenced by R1 and R2 groups as defined in Table XI.

Test [4] has as its target T1, angiotensin converting enzyme (ACE). To be noted: as reported by Patchett et al.; read-out: IC50 (binding affinity for ACE); cited from earlier work.

T1 sequence (P12821 30-1306, species assumed): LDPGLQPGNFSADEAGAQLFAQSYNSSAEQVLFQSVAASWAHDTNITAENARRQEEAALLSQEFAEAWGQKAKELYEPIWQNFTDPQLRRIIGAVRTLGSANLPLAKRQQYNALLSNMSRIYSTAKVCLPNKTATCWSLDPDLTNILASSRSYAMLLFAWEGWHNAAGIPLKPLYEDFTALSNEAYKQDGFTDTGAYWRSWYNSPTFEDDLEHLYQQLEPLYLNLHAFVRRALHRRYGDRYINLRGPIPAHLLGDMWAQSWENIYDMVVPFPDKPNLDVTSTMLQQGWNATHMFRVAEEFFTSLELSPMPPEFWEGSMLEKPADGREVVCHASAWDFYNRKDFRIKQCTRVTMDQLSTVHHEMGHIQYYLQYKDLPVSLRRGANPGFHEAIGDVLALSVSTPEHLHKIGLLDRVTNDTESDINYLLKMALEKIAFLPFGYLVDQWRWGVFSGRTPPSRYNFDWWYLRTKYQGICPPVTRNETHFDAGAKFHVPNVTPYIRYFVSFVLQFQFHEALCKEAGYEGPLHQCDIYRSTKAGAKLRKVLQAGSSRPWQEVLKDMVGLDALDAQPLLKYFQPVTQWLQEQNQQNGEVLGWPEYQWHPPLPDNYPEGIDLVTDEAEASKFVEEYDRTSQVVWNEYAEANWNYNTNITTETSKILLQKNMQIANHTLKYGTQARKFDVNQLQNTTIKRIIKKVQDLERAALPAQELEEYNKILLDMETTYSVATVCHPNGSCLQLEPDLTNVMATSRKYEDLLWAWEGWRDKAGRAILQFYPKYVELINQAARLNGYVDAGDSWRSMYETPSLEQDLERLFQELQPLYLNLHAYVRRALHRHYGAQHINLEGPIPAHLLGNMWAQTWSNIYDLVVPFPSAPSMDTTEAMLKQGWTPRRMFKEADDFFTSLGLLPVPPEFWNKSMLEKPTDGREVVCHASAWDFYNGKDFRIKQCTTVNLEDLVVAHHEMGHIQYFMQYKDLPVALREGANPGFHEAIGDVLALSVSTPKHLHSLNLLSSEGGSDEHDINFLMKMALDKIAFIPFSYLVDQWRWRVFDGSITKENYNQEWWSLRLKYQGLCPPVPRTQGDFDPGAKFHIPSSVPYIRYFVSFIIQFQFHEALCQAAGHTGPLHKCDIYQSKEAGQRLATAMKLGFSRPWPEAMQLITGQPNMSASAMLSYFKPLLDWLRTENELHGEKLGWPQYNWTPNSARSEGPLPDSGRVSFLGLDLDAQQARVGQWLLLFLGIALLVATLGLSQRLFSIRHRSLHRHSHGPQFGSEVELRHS

Regarding 5′-GCGAAGGC-fluorescein [FAA], in test [1], the “fluorescence image of hybridized DNA-receptor” value was “equivalent to the images with no receptor”. In addition, the “specificity of hybridization to PNA-array” value in test [2] was “hybridizes specifically to its complementary PNA sequence with little or no signal from other array elements”.

For 5′-GCGTAGGC-fluorescein [FTA], in test [1], the “fluorescence image of hybridized DNA-receptor” value is listed as “readily visible”. Besides, the “specificity of hybridization to PNA-array” value in test [2] is reported as “hybridizes specifically to its complementary PNA sequence with little or no signal from other array elements”.

For `CC(NC(Cc1ccccc1)C(=O)O)C(=O)N1CCCC1C(=O)O` (stereo not shown) [R1a+R2a], in test [3] (analogue cleaved from one array element of a 1 μm thick porous coat, pH 8.3), the “percent ACE inhibition (percent decrease in initial velocity relative to the negative control)” value is recorded as 35%. Besides, the 50% inhibitory concentration (IC50) in test [4] was 39 nM.

On to `NCCCC[C@H](N[C@@H](CCc1ccccc1)C(=O)O)C(=O)N1CCC[C@H]1C(=O)O` [lisinopril], for which, in test [3] (positive control, 250 nM lisinopril), the initial velocity entry is “zero”.
